Assay results taken from patent US20150080438A1, “6,7-Dihydro-5H-benzo[7]annulene derivatives, processes for their preparation, pharmaceutical products comprising them and their use for preparing medicaments” (Bayer Intellectual Property GmbH, priority 2011, published 2015).
pIC50: −log10 of the molar value. Counter-ions that a name gives are not always drawn.

Experiments:
oestrogen receptor (ER) = target: T1, oestrogen receptor (ER) (Homo sapiens, UniProt P03372); experiment: Anti-oestrogenic action in MVLN cells (inhibition of estradiol-induced luciferase, transactivation antagonism); assay type: cell-based; settings: inhibition of estradiol-induced luciferase activity, read-out: Anti-oestrogenic action in vitro: MVLN transactivation antagonism IC50
T1 construct: These MVLN cells express, along with the functional oestrogen receptor (ER), a reporter construct; endogenous in cells; host or cells: MVLN cells (MCF7 derivative with ER-responsive luciferase reporter)
T1 sequence (P03372 1-595): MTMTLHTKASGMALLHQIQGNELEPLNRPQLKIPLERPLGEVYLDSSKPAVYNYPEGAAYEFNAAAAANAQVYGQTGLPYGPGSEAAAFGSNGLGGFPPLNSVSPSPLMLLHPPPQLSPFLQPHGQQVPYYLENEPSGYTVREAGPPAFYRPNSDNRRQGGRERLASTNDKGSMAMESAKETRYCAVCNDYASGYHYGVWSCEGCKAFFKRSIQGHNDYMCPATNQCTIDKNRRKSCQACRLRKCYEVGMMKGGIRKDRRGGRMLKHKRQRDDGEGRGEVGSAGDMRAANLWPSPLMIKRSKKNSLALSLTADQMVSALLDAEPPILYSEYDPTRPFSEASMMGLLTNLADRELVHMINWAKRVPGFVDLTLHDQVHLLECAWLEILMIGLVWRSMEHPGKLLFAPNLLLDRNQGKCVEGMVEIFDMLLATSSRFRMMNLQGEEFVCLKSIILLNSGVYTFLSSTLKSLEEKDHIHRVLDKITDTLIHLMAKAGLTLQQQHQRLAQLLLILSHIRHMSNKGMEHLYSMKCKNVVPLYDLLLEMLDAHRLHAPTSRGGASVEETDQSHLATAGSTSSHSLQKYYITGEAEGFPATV
Summary of the method: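 MCF7-derived MVLN cells carrying an ER-driven luciferase reporter; test compounds applied with estradiol, and anti-oestrogenic action scored as inhibition of the estradiol-induced luciferase signal.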

[1] = system: ovarian estradiol synthesis; experiment: Stimulation of ovarian oestrogen synthesis (HPG axis) in hormonally intact adult rats; assay type: in vivo, rat; settings: 3 mg/kg daily for 10 days, quotient of peripheral estradiol values after and before treatment
Excerpt: The clinical use both of pure anti-oestrogens and of various SERMs for the treatment of premenopausal women is limited by their property of stimulating the ovaries through activation of the hypothalamic-pituitary-gonadal axis (HPG axis), which leads to the increase in peripheral estradiol levels (Palomba, S., Orio, F., Jr., Morelli, M., Russo, T., Pellicano, M., Zupi, E., Lombardi, G., Nappi, C., Panici, P. L., and Zullo, F. (2002). Raloxifene administration in premenopausal women with uterine leiomyomas: a pilot study. J Clin Endocrinol Metab 87, 3603-3608). This stimulation of the HPG axis is associated with penetration of the blood-brain barrier and penetration of the brain. To investigate the ovary-stimulating properties of the claimed pharmacological compounds, hormonally intact adult rats were treated with the substances daily for a period of 10 days. The study end point is the quotient of peripheral estradiol values after and before treatment.
Selected claimed pharmacological substances were investigated as described for their stimulating action on the HPG axis or ovarian estradiol synthesis. The selected substances show markedly less stimulation of the ovaries than the control compound raloxifene at equal dosages (cf. Table 5).

[2] = system: uterus growth induced by 17β-estradiol; experiment: Anti-uterus growth test in the adult rat; assay type: in vivo; settings: ovariectomized adult rat, percentage inhibition of uterus growth; for Anti-oestrogenic activity in vivo in % at a dose of 1 mg/kg (rat): 1 mg/kg s.c. d1-d3 with 1.5 μg/kg/day 17β-estradiol; for inhibition in vivo at 0.3 mg/kg: sc, 0.3 mg/kg s.c. d1-d3 with 1.5 μg/kg/day 17β-estradiol, read-out: Anti-oestrogenic activity in vivo in % at a dose of 0.3 mg/kg (rat)
Excerpt: The uterus of oestrogen-substituted rats can be used as a test model for detecting a direct action of substances with anti-oestrogenic properties. The parameter of oestrogenic action is estradiol-induced uterus growth in rats, which is inhibited by simultaneous administration of a substance with anti-oestrogenic action. The experimental animals (n=5-6 animals/group) were ovariectomized before the start of the test, to rule out the influence of endogenous oestrogens. After a phase of 6 to 10 days, the test substances are administered s.c. on 3 consecutive days (d1-d3) in combination with a substitution dose of 1.5 μg/kg/day of 17β-estradiol. 17β-estradiol alone serves as positive control, and the excipients serve as negative control. On day 4 (d4) the animals are killed, and the uteri and vaginae are removed and weighed. The organ weights are converted to mg/100 g body weight, then the mean value and the standard deviation are calculated for each dosage. The inhibition of uterus or vaginal growth induced by 17β-estradiol is shown as percentage inhibition. The selected claimed substances were investigated in adult female rats as described for their anti-oestrogenic, inhibitory action on the weight of the uterus. At the dosage used, the substances show a marked anti-oestrogenic action in vivo (Table 3 and Table 4).

| pIC50 (oestrogen receptor (ER)) | Stimulation of ovarian oestrogen synthesis: factor at a dose of 3 mg/kg rat [1] | SMILES | Anti-oestrogenic activity in vivo in % at a dose of 1 mg/kg (rat) [2] | inhibition in vivo at 0.3 mg/kg [2] |
| --- | --- | --- | --- | --- |
| 8.10 | 1.8 | CN(CCCCCC1=C(c2ccccc2)CCCc2cc(O)ccc21)CCC[S+]([O-])CCCC(F)(F)C(F)(F)F (racemic) [Example 2, 9-[5-(Methyl{3-[(RS)-(4,4,5,5,5-pentafluoropentyl)sulphinyl]propyl}amino)pentyl]-8-phenyl-6,7-dihydro-5H-benzo[7]annulen-3-ol] | 94% | 51% |
| 7.82 | – | CN(CCCCCC1=C(c2ccccc2)CCCc2cc(O)ccc21)CCCS(=O)(=O)CCCC(F)(F)C(F)(F)F [Example 3, 9-[5-(Methyl{3-[(4,4,5,5,5-pentafluoropentyl)sulphonyl]propyl}amino)pentyl]-8-phenyl-6,7-dihydro-5H-benzo[7]annulen-3-ol] | 64% | – |
| 8.30 | 1.8 | CN(CCCCCC1=C(c2cccc(O)c2)CCCc2cc(O)ccc21)CCCCS(=O)(=O)CCCC(F)(F)C(F)(F)F [Example 7, 8-(3-Hydroxyphenyl)-9-[5-(methyl{4-[(4,4,5,5,5-pentafluoropentyl)sulphonyl]butyl}amino)pentyl]-6,7-dihydro-5H-benzo[7]annulen-3-ol] | – | 31% |
| 8.52 | – | CN(CCCCCCC1=C(c2cccc(O)c2)CCCc2cc(O)ccc21)CCCS(=O)(=O)CCCC(F)(F)C(F)(F)F [Example 13, 8-(3-Hydroxyphenyl)-9-[6-(methyl{3-[(4,4,5,5,5-pentafluoropentyl)sulphonyl]propyl}amino)hexyl]-6,7-dihydro-5H-benzo[7]annulen-3-ol] | – | 79% |
| 8.30 | – | CN(CCCCCCC1=C(c2cccc(O)c2)CCCc2cc(O)ccc21)CCCCCCS(=O)(=O)CCCC(F)(F)C(F)(F)F [Example 19, 8-(3-Hydroxyphenyl)-9-[6-(methyl{6-[(4,4,5,5,5-pentafluoropentyl)sulphonyl]hexyl}amino)hexyl]-6,7-dihydro-5H-benzo[7]annulen-3-ol] | – | 38% |
| 8.70 | – | CN(CCCCCCC1=C(c2cc(O)ccc2F)CCCc2cc(O)ccc21)CCCS(=O)(=O)CCCC(F)(F)C(F)(F)F [Example 23, 8-(2-Fluoro-5-hydroxyphenyl)-9-[6-(methyl{3-[(4,4,5,5,5-pentafluoropentyl)sulphonyl]propyl}amino)hexyl]-6,7-dihydro-5H-benzo[7]annulen-3-ol] | – | 77% |
| 7.89 | – | CN(CCCCCCC1=C(c2ccc(F)c(O)c2)CCCc2c1ccc(O)c2Cl)CCCS(=O)(=O)CCCC(F)(F)C(F)(F)F [Example 24, 4-Chloro-8-(4-fluoro-3-hydroxyphenyl)-9-[6-(methyl{3-[(4,4,5,5,5-pentafluoropentyl)sulphonyl]propyl}amino)hexyl]-6,7-dihydro-5H-benzo[7]annulen-3-ol] | – | 14% |
| 9.00 | 2.4 | CN(CCCCCCC1=C(c2ccc(O)cc2)CCCc2cc(O)ccc21)CCCS(=O)(=O)CCCC(F)(F)C(F)(F)F [Example 27, 8-(4-Hydroxyphenyl)-9-[6-(methyl{3-[(4,4,5,5,5-pentafluoropentyl)sulphonyl]propyl}amino)hexyl]-6,7-dihydro-5H-benzo[7]annulen-3-ol] | – | 80% |
| 8.52 | 1.1 | CN(CCCCCCC1=C(c2ccc(F)c(O)c2)CCCc2cc(O)ccc21)CCCS(=O)(=O)CCCC(F)(F)C(F)(F)F [Example 29, 8-(4-Fluoro-3-hydroxyphenyl)-9-[6-(methyl{3-[(4,4,5,5,5-pentafluoropentyl)sulphonyl]propyl}amino)hexyl]-6,7-dihydro-5H-benzo[7]annulen-3-ol] | – | 61% |
| 8.70 | 1.7 | CN(CCCCCC1=C(c2ccc(O)c(F)c2)CCCc2cc(O)ccc21)CCCS(=O)(=O)CCCC(F)(F)C(F)(F)F [Example 38, 8-(3-Fluoro-4-hydroxyphenyl)-9-[5-(methyl{3-[(4,4,5,5,5-pentafluoropentyl)sulphonyl]propyl}amino)pentyl]-6,7-dihydro-5H-benzo[7]annulen-3-ol] | – | 57% |
| 8.15 | – | CN(CCCCCCC1=C(c2cccnc2)CCCc2cc(O)ccc21)CCCS(=O)(=O)CCCC(F)(F)C(F)(F)F [Example 44, 9-[6-(Methyl{3-[(4,4,5,5,5-pentafluoropentyl)sulphonyl]propyl}amino)hexyl]-8-(3-pyridyl)-6,7-dihydro-5H-benzo[7]annulen-3-ol] | – | 32% |
| 8.52 | – | CN(CCCCCCC1=C(c2ccc(S(C)(=O)=O)cc2)CCCc2cc(O)ccc21)CCCS(=O)(=O)CCCC(F)(F)C(F)(F)F [Example 49, 8-(4-Mesylphenyl)-9-[6-(methyl{3-[(4,4,5,5,5-pentafluoropentyl)sulphonyl]propyl}amino)hexyl]-6,7-dihydro-5H-benzo[7]annulen-3-ol] | – | 72% |
| 8.70 | – | CN(CCCCCCC1=C(c2cccc(O)c2)CCCc2cc(O)ccc21)CCCS(=O)(=O)CCCC(F)(F)F [Example 51, 8-(3-Hydroxyphenyl)-9-[6-(methyl{3-[(4,4,4-trifluorobutyl)sulphonyl]propyl}amino)hexyl]-6,7-dihydro-5H-benzo[7]annulen-3-ol] | – | 62% |
| 8.52 | – | CN(CCCCCCC1=C(c2cccc(O)c2)CCCc2cc(O)ccc21)CCCS(=O)(=O)CCC(F)(F)F [Example 56, 8-(3-Hydroxyphenyl)-9-[6-(methyl{3-[(3,3,3-trifluoropropyl)sulphonyl]propyl}amino)hexyl]-6,7-dihydro-5H-benzo[7]annulen-3-ol] | – | 33% |
| 8.52 | – | CN(CCCCCCC1=C(c2ccccc2)CCCc2cc(O)ccc21)CCCCS(=O)(=O)CCCC(F)(F)F [Example 58, 9-[6-(Methyl{4-[(4,4,4-trifluorobutyl)sulphonyl]butyl}amino)hexyl]-8-phenyl-6,7-dihydro-5H-benzo[7]annulen-3-ol] | – | 88% |
| 7.49 | – | CN(CCCCCCC1=C(c2ccccc2)CCCc2c1ccc(O)c2Cl)CCCS(=O)(=O)CCCC(F)(F)C(F)(F)F [Example 102, 4-Chloro-9-[6-(methyl{3-[(4,4,5,5,5-pentafluoropentyl)sulphonyl]propyl}amino)hexyl]-8-phenyl-6,7-dihydro-5H-benzo[7]annulen-3-ol] | – | 24% |
| – | 3.1 | O=C(c1ccc(OCCN2CCCCC2)cc1)c1c(-c2ccc(O)cc2)sc2cc(O)ccc12 [raloxifene hydrochloride, raloxifene, reference compound] | – | – |
